Data: the NIST ThermoML archive (doi:10.1016/j.tca.2019.178375)
± gives the expanded uncertainty stated by the source.

Key:
[1] = Crystal; DTA
[2] = Molar enthalpy of transition or fusion; settings: Crystal; DSC

Normal melting temperature [1]: 227.00 ± 4 °C
Molar enthalpy of transition or fusion [2]: 31.9 ± 2 kJ/mol
Structure (SMILES): Cl.c1ccc([C@H]2CN3CCSC3=N2)cc1 [(-)-Levamisole hydrochloride]
